Measured values taken from the NIST ThermoML archive (doi:10.1021/acs.jced.6b00334).
Numbers after ± are expanded uncertainties.

Tests used:
[1] = Solid-liquid equilibrium temperature; conditions: 101 kPa; Crystal; DTA
[2] = Molar enthalpy of transition or fusion; conditions: Crystal; DSC

Solid-liquid equilibrium temperature [1]: 384.15 ± 0.25 K | Molar enthalpy of transition or fusion [2]: 4.49 ± 1.2 kcal/mol
Compound: CCc1ccc2c(c1)C(=O)c1ccccc1C2=O [2-ethyl-9,10-anthracenedione]
